Measured values from article PMC12678798, “Discovery of an allosteric binding site for anthraquinones at the human P2X4 receptor” (Nature Communications, 2025).
Where a chain is given by its changes, count along the chain named.

Columns and labels:
[1] = target: T1, human P2X4-E307T receptor mutant (Homo sapiens, UniProt Q99571, E307T); assay: ATP-induced calcium influx assay, P2X4-E307T mutant in 1321N1 astrocytoma cells; type: cell-based; conditions: P2X4-E307T
T1 construct: expressed in transfected cells
T1 sequence (Q99571 1-388 E307T): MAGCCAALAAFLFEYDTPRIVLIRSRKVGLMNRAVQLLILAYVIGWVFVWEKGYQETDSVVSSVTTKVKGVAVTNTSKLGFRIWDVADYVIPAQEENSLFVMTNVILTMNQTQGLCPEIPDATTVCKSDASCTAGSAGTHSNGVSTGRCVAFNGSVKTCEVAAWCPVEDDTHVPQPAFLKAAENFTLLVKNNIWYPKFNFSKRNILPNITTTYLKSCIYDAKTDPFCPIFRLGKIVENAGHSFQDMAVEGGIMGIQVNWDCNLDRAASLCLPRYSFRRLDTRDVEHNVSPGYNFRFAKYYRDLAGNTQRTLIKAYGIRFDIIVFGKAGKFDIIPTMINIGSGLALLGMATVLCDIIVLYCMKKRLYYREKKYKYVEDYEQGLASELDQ

human wt P2X2 receptor = target: T2, human wt P2X2 receptor (Homo sapiens, UniProt Q9UBL9); assay: ATP-induced calcium influx assay, human wt P2X2 receptor in 1321N1 astrocytoma cells; type: cell-based
T2 construct: expressed in transfected cells
T2 sequence (Q9UBL9 1-471): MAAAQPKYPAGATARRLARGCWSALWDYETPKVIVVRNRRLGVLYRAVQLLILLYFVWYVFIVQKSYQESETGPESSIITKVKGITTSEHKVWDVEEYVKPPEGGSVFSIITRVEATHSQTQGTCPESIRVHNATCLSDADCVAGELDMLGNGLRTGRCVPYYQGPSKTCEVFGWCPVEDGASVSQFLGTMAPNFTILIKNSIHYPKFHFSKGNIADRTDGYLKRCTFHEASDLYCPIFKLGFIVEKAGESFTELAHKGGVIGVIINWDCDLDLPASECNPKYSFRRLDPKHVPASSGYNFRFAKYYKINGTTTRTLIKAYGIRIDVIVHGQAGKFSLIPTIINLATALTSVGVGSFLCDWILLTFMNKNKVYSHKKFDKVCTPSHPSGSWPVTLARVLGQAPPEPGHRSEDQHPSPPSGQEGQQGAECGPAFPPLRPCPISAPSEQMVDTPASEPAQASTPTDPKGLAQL

[2] = target: T3, hP2X4-E307T receptor mutant (Homo sapiens, UniProt Q99571, E307T); assay: Two-electrode voltage clamp (TEVC), P2X4-E307T in Xenopus laevis oocytes; type: cell-based; conditions: TEVC at -60 mV, Xenopus oocytes, P2X4-E307T
T3 construct: host or cells: Xenopus laevis oocytes injected with cRNA (pNKS2 vector)
T3 sequence (Q99571 1-388 E307T): T1 sequence (Q99571 1-388 E307T)

[3] = test system: chimeric receptor c1^V71-I83; parameters: method as in PMID 36328074; conditions: cited from earlier work
zebrafish P2X4 receptor = test system: zebrafish P2X4 receptor; parameters: method as in PMID 19641588, PMID 12127972; conditions: cited from earlier work
[4] = target: chimeric P2X4(P2X2) receptor c8^R265-L269 (Homo sapiens, UniProt Q99571, A266P/L269E/R265L); assay: cell-based
[5] = target: P2X4-D302I receptor mutant (Homo sapiens, UniProt Q99571, D302I); assay: cell-based
[6] = target: T4, P2X4-Q308T receptor mutant (Homo sapiens, UniProt Q99571, Q308T); assay: cell-based
T4 sequence (Q99571 1-388 Q308T): T1 sequence (Q99571 1-388 E307T) with T307E, Q308T

[7] = target: T5, chimeric P2X4(P2X2) receptor c6^N208-S216 (Homo sapiens, UniProt Q99571, I209R/N208D/S216R/T211D/T212G); parameters: expressed in transfected cells; gene synthesis (Geneart), pLVX-IRES-mCherry; method as in ref 19 (supplement); conditions: read-out: ATP EC50, published value, ref 19 (supplement); cited from earlier work
T5 sequence (Q99571 1-388 N208D/I209R/T211D/T212G/S216R): T1 sequence (Q99571 1-388 E307T) with N208D, I209R, T211D, T212G, S216R, T307E

P2X4-D302I receptor mutant, sequence (Q99571 whole entry D302I): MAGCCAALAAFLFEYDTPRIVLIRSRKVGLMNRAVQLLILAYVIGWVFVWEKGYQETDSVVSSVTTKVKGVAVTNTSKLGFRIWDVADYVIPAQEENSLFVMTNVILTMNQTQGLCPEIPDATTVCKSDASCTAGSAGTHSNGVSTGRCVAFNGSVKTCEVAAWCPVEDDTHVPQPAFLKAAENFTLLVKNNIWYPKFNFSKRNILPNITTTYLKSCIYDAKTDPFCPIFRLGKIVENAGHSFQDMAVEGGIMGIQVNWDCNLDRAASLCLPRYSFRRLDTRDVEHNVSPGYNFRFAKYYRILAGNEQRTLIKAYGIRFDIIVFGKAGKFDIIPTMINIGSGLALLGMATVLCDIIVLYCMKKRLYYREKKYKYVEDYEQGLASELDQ
chimeric P2X4(P2X2) receptor c8^R265-L269, sequence (Q99571 whole entry R265L/A266P/L269E): as the sequence (Q99571 whole entry D302I) above, with R265L, A266P, L269E, I302D counted along it

SMILES: Nc1ncnc2c1ncn2[C@@H]1O[C@H](COP(=O)(O)OP(=O)(O)OP(=O)(O)O)[C@@H](O)[C@H]1O [ATP, Adenosine 5′-triphosphate]
- EC50 [1]: 921 nM
- EC50 (human wt P2X2 receptor; ATP EC50, wt hP2X2, calcium influx): 637 nM
- EC50 (human wt P2X2 receptor; ATP pEC50 ± SEM, wt hP2X2): 759 nM
- EC50 [2]: ~10000 nM
- Maximal effect of ATP compared to that of the human wt P2X4 receptor [3]: 4%
- Potency of ATP at the zebrafish P2X4 receptor lower than at the human P2X4 receptor (zebrafish P2X4 receptor): about 700 fold
- EC50 [4]: 389 nM
- EC50 ([5]; ATP EC50, P2X4-D302I): 1600 nM
- EC50 ([5]; ATP pEC50 ± SEM, P2X4-D302I): 1410 nM
- EC50 ([6]; ATP EC50, P2X4-Q308T): 295 nM
- EC50 ([6]; ATP pEC50 ± SEM, P2X4-Q308T): 275 nM
- EC50 [7]: 572 nM
